These are literature values, as cited in patent US20190350224A1, “METHOD FOR IMPROVING MUSCLE FORCE OR PHYSICAL FUNCTION” (University of Washington, priority 2018, published 2019).

The conditions of the series: against reactive oxygen species.

Turning to `CC1=C(/C=C/C(C)=C/C=C/C(C)=C/C=C/C=C(C)/C=C/C=C(C)/C=C/C2=C(C)C(=O)C(O)CC2(C)C)C(C)(C)CC(O)C1=O` (stereo not drawn) [astaxanthin, 3,3′-dihydroxy-β,β-carotene-4,4′-dione], the “antioxidant action relative to n-carotene” value was “about 40 times”.
